From publication PMC3859723 (Biochemistry, 2013)

Key:
[1] = target: R. sphaeroides cytochrome c oxidase (RsCcO) wild-type (Cereibacter sphaeroides, UniProt P33517+Q03736); assay: biochemical; assay type: biochemical, Rhodobacter sphaeroides; details: for Shape of response in ligand titration: activation at low ligand concentration followed by inhibition at higher concentration
[2] = target: T1, RsCcO E101A mutant (Cereibacter sphaeroides, UniProt P33517+Q03736, E101A); details: cited from earlier work
T1 sequence (P33517 whole entry): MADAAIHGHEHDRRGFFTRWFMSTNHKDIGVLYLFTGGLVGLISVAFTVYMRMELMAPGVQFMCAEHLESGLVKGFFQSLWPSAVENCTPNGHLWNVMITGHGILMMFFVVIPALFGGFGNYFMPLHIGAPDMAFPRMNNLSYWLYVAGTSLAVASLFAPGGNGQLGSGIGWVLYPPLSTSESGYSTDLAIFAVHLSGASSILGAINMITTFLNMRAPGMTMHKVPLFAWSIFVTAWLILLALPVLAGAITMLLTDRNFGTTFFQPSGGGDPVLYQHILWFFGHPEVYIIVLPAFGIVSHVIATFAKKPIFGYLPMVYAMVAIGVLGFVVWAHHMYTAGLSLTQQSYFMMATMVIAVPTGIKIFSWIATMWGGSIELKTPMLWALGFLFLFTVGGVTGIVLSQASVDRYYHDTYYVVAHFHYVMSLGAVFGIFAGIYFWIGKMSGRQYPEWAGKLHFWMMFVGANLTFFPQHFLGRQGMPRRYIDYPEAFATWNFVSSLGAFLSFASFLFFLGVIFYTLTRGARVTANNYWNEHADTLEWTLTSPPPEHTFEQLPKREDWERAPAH
T1 sequence (Q03736 26-303 E101A): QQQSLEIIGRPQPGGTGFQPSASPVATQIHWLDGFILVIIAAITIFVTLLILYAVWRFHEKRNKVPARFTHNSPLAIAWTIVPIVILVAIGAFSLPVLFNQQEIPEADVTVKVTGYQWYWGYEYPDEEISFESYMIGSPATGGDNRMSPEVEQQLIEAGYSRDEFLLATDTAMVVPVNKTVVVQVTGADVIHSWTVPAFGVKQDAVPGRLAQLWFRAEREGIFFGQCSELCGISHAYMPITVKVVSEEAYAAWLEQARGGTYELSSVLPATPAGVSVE

[3] = target: T1, RsCcO E101A mutant; assay: biochemical; design: species or system Rhodobacter sphaeroides

Chain of R. sphaeroides cytochrome c oxidase (RsCcO) wild-type (P33517 whole entry): as the sequence (P33517 whole entry) above
Chain of R. sphaeroides cytochrome c oxidase (RsCcO) wild-type (Q03736 26-303): as the sequence (Q03736 26-303 E101A) above, with A76E counted along it

## Nc1ncnc2c1ncn2[C@@H]1O[C@H](COP(=O)(O)OP(=O)(O)NP(=O)(O)O)[C@@H](O)[C@H]1O [ATP analog, adenosine 5′-(β, γ-imido) triphosphate]
[1]; WT, 5 mM ATP analog, DOC 0–2 mM, saturating cytochrome c
  Competition with DOC inhibition of RsCcO: prevented DOC in the 0–2 mM range from inhibiting RsCcO activity
[1]; WT, 5 mM ligand, saturating cytochrome c
  Effect of ligand alone on RsCcO activity: no effect
[1]; WT, saturating cytochrome c
  Shape of response in ligand titration: biphasic response
[2]
  Effect on E101A mutant activity: very low stimulation and no inhibition of activity

## CC1=C(/C=C/C(C)=C/C=C/C(C)=C/C(=O)O)C(C)(C)CCC1 [retinoic acid]
[1]
  IC50: 1.7 mM
  Ki: 0.14 mM
[1]; WT, saturating cytochrome c
  Shape of response in ligand titration: biphasic response
[3]
  IC50: 0.19 mM

## CC(C)=CCC/C(C)=C/CC/C(C)=C/CO[P@@](=O)(O)OP(=O)(O)O (stereo in doubt) [farnesyl diphosphate]
[1]; WT, saturating cytochrome c
  Effect on RsCcO activity at maximal ligand concentration: no significant effect

## C[C@]12CC[C@H]3[C@@H](CCC4=CC(=O)CC[C@@]43C)[C@@H]1CC[C@@H]2O [testosterone]
[1]; WT, 0–30 μM cytochrome c
  Effect on RsCcO under low or high concentrations of cytochrome c: failed to affect RsCcO
[1]; WT, saturating cytochrome c
  Effect on RsCcO activity at maximal ligand concentration: no significant effect

## C[C@H](CCC(=O)O)[C@H]1CC[C@H]2[C@@H]3CC[C@@H]4C[C@H](O)CC[C@]4(C)[C@H]3C[C@H](O)[C@]12C [DOC, deoxycholate]
[1]
  IC50: 1.4 mM
[1]; WT, 0–30 μM cytochrome c
  Mode of inhibition with respect to cytochrome c: noncompetitive inhibition
[1]; WT, saturating cytochrome c
  Maximal lowering of RsCcO activity: more than 90%
[3]; E101A mutant, 0–30 μM cytochrome c
  Mode of inhibition with respect to cytochrome c: noncompetitive inhibition

## NC(=O)c1ccc[n+]([C@@H]2O[C@H](COP(=O)([O-])OP(=O)(O)OC[C@H]3O[C@@H](n4cnc5c(N)ncnc54)[C@H](O)[C@@H]3O)[C@@H](O)[C@H]2O)c1 [NAD^+]
[1]; WT, 0–30 μM cytochrome c
  Effect on RsCcO under low or high concentrations of cytochrome c: failed to affect RsCcO
[1]; WT, saturating cytochrome c
  Effect on RsCcO activity at maximal ligand concentration: no significant effect

## CC(=O)O[C@H]1C[C@@]2(C)[C@@H](C[C@@H](O)[C@H]3[C@@]4(C)CC[C@@H](O)[C@@H](C)[C@@H]4CC[C@@]32C)/C1=C(\CCC=C(C)C)C(=O)O [Fusidic acid, fusidic acid]
[1]
  IC50: 3.4 mM
  Ki: 2.5 mM
[1]; WT, saturating cytochrome c
  Shape of response in ligand titration: biphasic response

## Cc1cc2nc3c(=O)[nH]c(=O)nc-3n(C[C@H](O)[C@H](O)[C@H](O)COP(=O)(O)OP(=O)(O)OC[C@H]3O[C@@H](n4cnc5c(N)ncnc54)[C@H](O)[C@@H]3O)c2cc1C [FAD]
[1]; WT, saturating cytochrome c
  Effect on RsCcO activity at maximal ligand concentration: no significant effect

## C[C@]12CCC(=O)C=C1CC[C@@H]1[C@@H]2[C@@H](O)C[C@@]2(C)[C@H]1CC[C@]2(O)C(=O)CO [hydrocortisone]
[1]; WT, 0–30 μM cytochrome c
  Effect on RsCcO under low or high concentrations of cytochrome c: failed to affect RsCcO
[1]; WT, saturating cytochrome c
  Effect on RsCcO activity at maximal ligand concentration: no significant effect

## C[C@]12CCC(=O)C=C1CC[C@@H]1[C@@H]2[C@@H](O)C[C@]2(C=O)[C@@H](C(=O)CO)CC[C@@H]12 [aldosterone]
[1]; WT, 0–30 μM cytochrome c
  Effect on RsCcO under low or high concentrations of cytochrome c: failed to affect RsCcO
[1]; WT, saturating cytochrome c
  Effect on RsCcO activity at maximal ligand concentration: no significant effect

## C[C@]12CC[C@@H]3c4ccc(O)cc4CC[C@H]3[C@@H]1CC[C@@H]2O [estradiol]
[1]; WT, 0–30 μM cytochrome c
  Effect on RsCcO under low or high concentrations of cytochrome c: failed to affect RsCcO
[1]; WT, saturating cytochrome c
  Effect on RsCcO activity at maximal ligand concentration: no significant effect

## cytochrome c: purified bovine heart cytochrome c used as the substrate
[1]; read-out: Km of cytochrome c, RsCcO WT and E101A, unchanged by DOC inhibition
  Km: ~1 µM

## Nc1ncnc2c1ncn2[C@@H]1O[C@H](COP(=O)(O)OP(=O)(O)O)[C@@H](O)[C@H]1O [ADP]
[1]; WT, saturating cytochrome c
  Effect on RsCcO activity at maximal ligand concentration: no significant effect

## Nc1nc2c(ncn2[C@@H]2O[C@H](COP(=O)(O)OP(=O)(O)O)[C@@H](O)[C@H]2O)c(=O)[nH]1 [GDP]
[2]
  Effect on E101A mutant activity: very low stimulation and no inhibition of activity
